From US9394295B2, “Antibacterial homopiperidinyl substituted 3,4-dihydro-1H-[1,8]naphthyridinones” (Janssen Sciences Ireland UC, priority 2011, dated 2016)
Values after ≈ are worked out from the molar mass of the structure shown. Like-named read-outs stand apart in the source and are kept apart here.

Key:
[1] = molecular target: T1, S. aureus ATCC 29213 FabI (Staphylococcus aureus, UniProt Q6GI75); test: Staphylococcus aureus FabI enzyme inhibition assay; type: biochemical; details: 30 minutes at room temperature, NADH consumption
T1 sequence (Q6GI75 1-256): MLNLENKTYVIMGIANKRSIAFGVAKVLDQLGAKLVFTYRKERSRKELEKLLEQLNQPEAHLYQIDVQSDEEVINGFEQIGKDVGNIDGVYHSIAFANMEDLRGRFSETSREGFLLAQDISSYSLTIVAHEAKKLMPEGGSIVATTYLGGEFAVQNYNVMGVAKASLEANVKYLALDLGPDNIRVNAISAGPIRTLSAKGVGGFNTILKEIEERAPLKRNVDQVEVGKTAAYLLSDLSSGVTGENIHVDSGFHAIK
Experimental: FabI enzyme inhibition assays were carried out in half-area, 384-well microtitre plates. Compounds were evaluated in 40-μl assay mixtures containing 100 mM NaADA, pH 6.5 (ADA=N-[2-acetamido]-2iminodiacetic acid), 250 μM crotonoyl-CoA, 625 μM NADH and 50 μg/ml S. aureus ATCC 29213 FabI Inhibitors were typically varied over the range of 50 to 0.39 μM. The reaction mixtures were incubated for 30 minutes at room temperature and the reaction was stopped by adding 200 mM Tris buffer (pH 9.0) to create a pH-shift. The consumption of NADH was monitored by measuring the change in absorbance at […]. By comparing sample readings to those of negative (absence of compound) and positive (absence of enzyme) controls, the percent inhibition of enzymatic activity of the compounds was determined. A best-fit curve is fitted by a minimum of squares method. From this an IC50-value (expressed in μg/ml), resulting in 50% inhibition of enzymatic activity, was obtained.

[2] = system: Staphylococcus aureus ATCC 29213; test: Antibacterial susceptibility testing: IC90 determination (STA); type: cell-based; details: ATCC29213, S. aureus ATCC 29213, 90% inhibitory concentration for bacterial growth, read-out: STA (361.159) IC90
Experimental: (§1) The following bacteria were used: Staphylococcus aureus ATCC 29213, methicillin-resistant Staphylococcus aureus (MRSA) ATCC 700788 and Escherichia coli ATCC 35218. The bacteria used in this study were grown overnight in flasks containing 100 ml Mueller-Hinton broth (Difco cat. nr. 0757-17) in sterile de-ionized water, with shaking, at 37° C. Stocks were store at −70° C. until use.
(§2) Bacteria were incubated on a tryptic soy agar plate containing 5% sheep blood (Becton Dickinson cat. nr. 254053) for 18-24 hours at 35° C. in aerobic conditions (first passage). For the second passage, fresh Mueller-Hinton broth is inoculated with 5-10 colonies and grown overnight at 35° C. until turbidity (reaching log-phase) in aerobic conditions is reached. The bacterial suspension is then adjusted to 0.5 McFarland density and further diluted 1:100 in Mueller Hinton broth medium. This is used as inoculum.
(§3) MIC assays were performed by the broth microdilution method in a 96-well format (flat-bottom microtitre plates) with a final volume of 0.1 ml Mueller Hinton broth containing two-fold serial dilutions of compounds and inoculated with 5×10^5 CFU/ml of bacteria (standard inoculum size according to CLSI guidelines). Inhibitors are typically varied over the range of 63 to 0.49 μM. The final DMSO concentration in the assay was 1.25% (maximum tolerable DMSO concentration=6%). In the assays where the effect of human serum on the activity of the compounds against S. aureus was tested, human serum was added at a final concentration of 10%. The plates were incubated at 35° C. for 16-20 hours. At the end of incubation the bacterial growth was quantified fluorometrically. For this, resazurin was added to all wells and the plates were re-incubated. The incubation time is dependent on the type of bacteria. A change in color from blue to pink indicated the growth of bacteria. The fluorescence was read in computer-controlled fluorometer (Fluoroskan Ascent FL, Labsystems) at an excitation wavelength 540 nm and an emission wavelength of 590 nm. The % growth inhibition achieved by the compounds was calculated according to standard methods. The IC90 (expressed in μg/ml) was defined as the 90% inhibitory concentration for bacterial growth. A panel of reference compounds were simultaneously tested for QC approval.

S. aureus = test: Antibacterial susceptibility testing: IC90 determination with 10% human serum (STA + 10% HS); type: cell-based; details: Staphylococcus aureus; S. aureus with human serum at final concentration of 10%; read-out: STA + 10% HS (361.169) IC90
Experimental: as §1, §2, §3
The results are depicted in the table D2 below (STA+10% HS).

[3] = Cytotoxicity MTT assay (TOX HELAM); type: cell-based; details: human, HelaM cells, read-out: TOX HELAM (222.125) CC50
Experimental: Cytotoxicity of the compounds was evaluated using the MTT assay. Human HelaM cells grown in 96-well plates were exposed to serial dilutions of the tested compounds (final volume of 0.2 ml) and incubated for 72 hours at 37° C. and 5% CO2. Inhibitors are typically varied over the range of 25 to 0.8 μM. The final DMSO concentration in the assay is 0.5%. MTT (3-(4,5-Dimethylthiazol-2-yl)-2,5-diphenyltetrazolium bromide, a tetrazole) was added and reduced to purple formazan only in living cells. Solubilization of the formazan crystals was achieved by adding 100 μl 2-propanol. Cell viability was determined by measuring the absorbance of the reduced formazan, giving a purple color, at 540 nm and 690 nm. The absorbance measured at 690 nm was automatically subtracted from the absorbance at 540 nm, to eliminate the effects of non-specific absorption. The percent cytotoxicity achieved by the compounds was calculated according to standard methods. Cytotoxicity is reported as CC50, the concentration that causes a 50% reduction in cell viability.
The results are depicted in the table D2 below (TOX HELAM).

[4] = In vivo pharmacokinetic and oral bioavailability; details: male Swiss mice; for half-life: read-out: Half life (t1/2) (converted)
Experimental: The in vivo pharmacokinetics and oral bioavailability of the compound of the examples was/is investigated in male Swiss mice (fed) following single intravenous (i.v.) bolus and oral (p.o.) administration. For the i.v. and p.o. solution formulations, the compound was/is dissolved in a 20% HP-β-CD solution. The pH of the formulations was/is around pH 4. All i.v. formulations were isotonic.

S. aureus ATCC 29213 = test: MIC broth microdilution (CLSI), S. aureus ATCC 29213; type: cell-based; details: Staphylococcus aureus, ATCC 29213 / MSSA, reference strain MSSA
Experimental: (§4) Minimum Inhibitory Concentrations (MICs) were determined in accordance with the Clinical and Laboratory Standards Institute (CLSI) methodology against aerobic bacteria (CLSI M07-A8) (see Clinical and Laboratory Standards Institute. 2009. Methods for dilution antimicrobial susceptibility tests for bacteria that grow aerobically. CLSI document M07-A8, Vol. 29, No. 2.) by the broth microdilution method with cation-adjusted Mueller-Hinton broth (CA-MHB) medium for the majority of organisms, except for Haemophilus influenza, where Haemophilis test medium (HTM) broth was used. Descriptions of the individual organisms can be found in the table. Where possible, ATCC standard strains were tested.
(§5) The inoculum density for the susceptibility testing was standardized to give a final inoculum of approximately 5×10^5 CFU/mL.
(§6) Stock solutions of the compounds were prepared in DMSO at concentrations of 1 mg/mL. Linezolid was prepared in DMSO at a concentration of 2 mg/mL. Stock solutions of all compounds were diluted into CA-MHB to give a range of two-fold dilutions, depending upon the sensitivity of the organism being tested.

S. aureus ATCC 43300 = test: MIC broth microdilution (CLSI), S. aureus ATCC 43300; type: cell-based; details: Staphylococcus aureus, ATCC 43300 / MRSA, reference strain MRSA
Experimental: as §4, §5, §6

E. coli tolC mutant = test: MIC broth microdilution (CLSI), E. coli tolC mutant; type: cell-based; details: Escherichia coli
Experimental: as §4, §5, §6

E. coli ATCC 25922 = test: MIC broth microdilution (CLSI), E. coli ATCC 25922; type: cell-based; details: Escherichia coli, ATCC25922
Experimental: as §4, §5, §6

H. influenza ATCC 49247 = test: MIC broth microdilution (CLSI), H. influenza ATCC 49247; type: cell-based; details: Haemophilus influenzae, ATCC49247, HTM broth
Experimental: as §4, §5, §6

[5] = mouse, plasma, iv, i.v. 2.5 mg/kg
[6] = mouse, plasma, po, p.o. 10 mg/kg

IC50 [1]	IC90 [2]	IC90 (S. aureus)	melting point	Vdz ([4]; i.v. 2.5 mg/kg)	AUC(0-inf) [4, 5]	C0 ([4]; mouse, plasma, iv, i.v. 2.5 mg/kg, 20% HP-β-CD solution)	half-life [4, 5]	clearance ([4]; mouse, plasma, iv, i.v. 2.5 mg/kg, read-out: Plasma clearance Cl (converted))	bioavailability ([4]; mouse, plasma, po, p.o. 10 mg/kg vs i.v. 2.5 mg/kg)	AUC(0-inf) [4, 6]	Tmax [4, 6]	Cmax ([4]; mouse, plasma, po, p.o. 10 mg/kg, 20% HP-β-CD solution)	half-life [4, 6]	SMILES	CC50 at 72 h [3]	MIC90 (S. aureus ATCC 29213)	MIC90 (S. aureus ATCC 43300)	MIC90 (E. coli tolC mutant)	MIC90 (E. coli ATCC 25922)	MIC90 (H. influenza ATCC 49247)
1.04 µM	3.24 mg/L (≈ 8.61 µM)	5.76 mg/L	156 °C	–	–	–	–	–	–	–	–	–	–	O=C1CCc2cc(/C=C/C(=O)N3CCCN(c4ccccc4)CC3)cnc2N1 [Co. No. 11]	> 9.46 mg/L	–	–	–	–	–
0.863 µM	1.54 mg/L (≈ 3.8 µM)	3.74 mg/L	–	1.0 L/kg	6.7 µg·h/mL	4.55 µg/mL	2 h	0.36 L/h/kg	90%	23.8 µg·h/mL	1 h	3.93 µg/mL	2.8 h	Cc1ccc(F)cc1C1=CCN(C(=O)/C=C/c2cnc3c(c2)CCC(=O)N3)CCC1 [Co. No. 14]	9.73 mg/L (≈ 24 µM)	–	–	–	–	–

SMILES	IC50 [1]	IC90 [2]	IC90 (S. aureus)	melting point	Vdz ([4]; i.v. 2.5 mg/kg)	AUC(0-inf) [4, 5]	C0 ([4]; mouse, plasma, iv, i.v. 2.5 mg/kg, 20% HP-β-CD solution)	half-life [4, 5]	clearance ([4]; mouse, plasma, iv, i.v. 2.5 mg/kg, read-out: Plasma clearance Cl (converted))	bioavailability ([4]; mouse, plasma, po, p.o. 10 mg/kg vs i.v. 2.5 mg/kg)	AUC(0-inf) [4, 6]	Tmax [4, 6]	Cmax ([4]; mouse, plasma, po, p.o. 10 mg/kg, 20% HP-β-CD solution)	half-life [4, 6]	CC50 at 72 h [3]	MIC90 (S. aureus ATCC 29213)	MIC90 (S. aureus ATCC 43300)	MIC90 (E. coli tolC mutant)	MIC90 (E. coli ATCC 25922)	MIC90 (H. influenza ATCC 49247)
O=C1CCc2cc(/C=C/C(=O)N3CCC=C(c4cccc(Cl)c4)CC3)cnc2N1 [Co. No. 19]	1.05 µM	0.35 mg/L (≈ 0.858 µM)	1.38 mg/L	–	–	–	–	–	–	–	–	–	–	–	> 20.4 mg/L	0.125 mg/L (≈ 0.306 µM)	0.25 mg/L (≈ 0.613 µM)	1 mg/L (≈ 2.45 µM)	> 8 mg/L	> 8 mg/L
